Source: patent US10722514B2 (FLX Bio, Inc., priority 2017, dated 2020)
Structures can show the parent of a compound that is named as a salt. Where two headings read alike, the source gives them in different places.

Target: T1, recombinant full-length USP7 (Homo sapiens, UniProt Q93009)
T1 construct: A 25 μl reaction volume containing recombinant full-length USP7 (62 pM)
Test: USP7-mediated ubiquitin-rhodamine cleavage assay
Assay type: biochemical
Conditions: recombinant full-length USP7 62 pM, ubiquitin-rhodamine 100 nM, 1 hour reaction at room temperature
In short: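 Full-length recombinant USP7 (62 pM) in 20 mM HEPES pH 7.3, 150 mM NaCl, 1 mM TCEP, 125 μg/ml BSA, 1% DMSO, preincubated with compound 30 min at RT. Ubiquitin-rhodamine (100 nM final) cleaved 1 h at RT in the dark, stopped with acetic acid; rhodamine fluorescence read, IC50 by 4-parameter nonlinear fit.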

[1] = 30-minute incubation with compound, read-out: Potency: USP7 IC50
[2] = 30-minute pre-incubation, read-out: Potency (USP7 IC50)

T1 sequence (Q93009 whole entry): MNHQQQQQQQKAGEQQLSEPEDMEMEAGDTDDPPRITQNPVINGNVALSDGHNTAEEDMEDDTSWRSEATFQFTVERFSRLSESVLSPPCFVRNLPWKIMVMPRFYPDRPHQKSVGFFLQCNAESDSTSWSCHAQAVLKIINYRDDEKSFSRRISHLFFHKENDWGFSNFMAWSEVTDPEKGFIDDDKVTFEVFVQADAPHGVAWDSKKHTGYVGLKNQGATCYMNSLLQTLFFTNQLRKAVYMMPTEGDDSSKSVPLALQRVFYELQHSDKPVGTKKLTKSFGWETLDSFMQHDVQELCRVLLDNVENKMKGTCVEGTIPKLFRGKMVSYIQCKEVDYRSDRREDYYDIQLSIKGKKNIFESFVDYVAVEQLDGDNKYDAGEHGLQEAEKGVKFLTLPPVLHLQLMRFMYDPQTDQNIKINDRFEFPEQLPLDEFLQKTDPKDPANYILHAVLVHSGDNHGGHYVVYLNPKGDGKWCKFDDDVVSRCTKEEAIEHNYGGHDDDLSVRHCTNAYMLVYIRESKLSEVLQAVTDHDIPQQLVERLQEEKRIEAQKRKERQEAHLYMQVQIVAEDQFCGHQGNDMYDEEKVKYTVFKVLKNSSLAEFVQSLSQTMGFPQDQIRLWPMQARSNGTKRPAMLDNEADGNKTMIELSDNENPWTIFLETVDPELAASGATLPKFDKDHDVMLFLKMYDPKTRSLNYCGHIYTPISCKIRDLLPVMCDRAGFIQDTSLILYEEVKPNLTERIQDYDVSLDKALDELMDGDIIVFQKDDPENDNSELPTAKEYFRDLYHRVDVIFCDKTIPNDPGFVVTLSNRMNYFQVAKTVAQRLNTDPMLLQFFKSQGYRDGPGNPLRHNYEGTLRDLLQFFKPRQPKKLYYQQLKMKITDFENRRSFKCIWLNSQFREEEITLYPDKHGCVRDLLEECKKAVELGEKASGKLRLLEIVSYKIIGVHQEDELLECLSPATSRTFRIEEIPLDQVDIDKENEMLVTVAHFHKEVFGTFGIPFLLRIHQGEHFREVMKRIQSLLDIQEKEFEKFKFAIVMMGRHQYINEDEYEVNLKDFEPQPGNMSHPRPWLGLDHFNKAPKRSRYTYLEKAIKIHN

| Compound | IC50 [1] [nM] | IC50 [2] [nM] |
| --- | --- | --- |
| Cc1cc(Cl)cc(-c2ccnc3cc(CN4C(=O)CCC4=O)sc23)c1O[C@H]1CCNC[C@@H]1C [Example 223, 1-((7-(5-Chloro-3-methyl-2-(((3S,4S)-3-methylpiperidin-4-yl)oxy)phenyl)thieno[3,2-b]pyridin-2-yl)methyl)pyrrolidine-2,5-dione] | < 1000 |  |
| Cc1cc(C#N)cc(-c2ccnc3ccsc23)c1OCC1(C)CNC1 [Example 44, 3-Methyl-4-((3-methylazetidin-3-yl)methoxy)-5-(thieno[3,2-b]pyridin-7-yl)benzonitrile] | 1000 to 10000 |  |
| Cc1cc(Cl)cc(-c2ncnc3ccsc23)c1OCC1(C)CNC1 [Example 26, 4-(5-Chloro-3-methyl-2-((3-methylazetidin-3-yl)methoxy)phenyl)thieno[3,2-d]pyrimidine] | 10000 to 30000 |  |
| Cc1cc(Cl)cc(-c2ccnc3cc(Cn4c(=O)ccn(CC(F)(F)F)c4=O)sc23)c1O[C@@H]1CN(C2CCOC2)C[C@@H]1C (stereo partly drawn) [Example 605, 3-[[7-[5-chloro-3-methyl-2-[(3S,4S)-4-methyl-1-tetrahydrofuran-3-yl-pyrrolidin-3-yl]oxy-phenyl]thieno[3,2-b]pyridin-2-yl]methyl]-1-(2,2,2-trifluoroethyl)pyrimidine-2,4-dione] |  | < 1000 |
| Cc1cc(Cl)cc(-c2ncnc3cc(CN4C(=O)CSC4=O)sc23)c1O[C@H]1CCCNC1 [Example 250, (S)-3-((4-(5-Chloro-3-methyl-2-(piperidin-3-yloxy)phenyl)thieno[3,2-d]pyrimidin-6-yl)methyl)thiazolidine-2,4-dione] | < 1000 |  |
| Cc1cc(Cl)cc(-c2ccnc3cc(CN4C(=O)C5C(C4=O)C5(C)C)sc23)c1OC1CC(N)C1 (centres unmarked) [Example 357, 3-[[7-[2-(3-aminocyclobutyoxy)-5-chloro-3-methyl-phenyl]thieno[3,2-b]pyridin-2-yl]methyl]-6,6-dimethyl-3-azabicyclo[3.1.0]hexane-2,4-dione; 2,2,2-trifluoroacetic acid] | < 1000 |  |
| CC[C@@H]1C[C@H](Oc2c(C)cc(Cl)cc2-c2ccnc3cc(Cn4c(=O)ccn(C)c4=O)sc23)CCN1 [Example 611, 3-[[7-[5-chloro-2-[[(2R,4R)-2-ethyl-4-piperidyl]oxy]-3-methyl-phenyl]thieno[3,2-b]pyridin-2-yl]methyl]-1-methyl-pyrimidine-2,4-dione] |  | < 1000 |
| Cc1cc(Cl)cc(-c2ccnc3cc(CN4C(=O)NC(C)(C)C4=O)sc23)c1OC1CCNCC1 [Example 185, 3-((7-(5-Chloro-3-methyl-2-(piperidin-4-yloxy)phenyl)thieno[3,2-b]pyridin-2-yl)methyl)-5,5-dimethylimidazolidine-2,4-dione] | < 1000 |  |
| Cc1cc(Cl)cc(-c2ccnc3cc(Cn4c(=O)ccn(C)c4=O)sc23)c1O[C@H]1CN[C@@H](C(=O)O)C1 [Example 601, (2R,4R)-4-[4-chloro-2-methyl-6-[2-[(3-methyl-2,6-dioxo-pyrimidin-1-yl)methyl]thieno[3,2-b]pyridin-7-yl]phenoxy]pyrrolidine-2-carboxylic acid] |  | 1000 to 10000 |
| Cc1cc(Cl)cc(-c2ncnc3cc(CN4C(=O)C5CCCC5C4=O)sc23)c1O[C@@H]1CNC[C@@H]1F (stereo partly drawn) [Example 158, 2-((4-(5-Chloro-2-(((3R,4S)-4-fluoropyrrolidin-3-yl)oxy)-3-methylphenyl)thieno[3,2-d]pyrimidin-6-yl)methyl)tetrahydrocyclopenta[c]pyrrole-1,3(2H,3aH)-dione] | < 1000 |  |
| Cc1cc(Cl)cc(-c2ccnc3cc(CO)sc23)c1OCC1(C#N)CNC1 [Example 41, 3-((4-Chloro-2-(2-(hydroxymethyl)thieno[3,2-b]pyridin-7-yl)-6-methylphenoxy)methyl)azetidine-3-carbonitrile] | < 1000 |  |
| CCO[C@H]1CNC[C@H]1Oc1c(C)cc(Cl)cc1-c1ccnc2cc(CO)sc12 [Example 73, (7-(5-Chloro-2-(((3R,4S)-4-ethoxypyrrolidin-3-yl)oxy)-3-methylphenyl)thieno[3,2-b]pyridin-2-yl)methanol] | 10000 to 30000 |  |
| Cc1cc(C#N)cc(-c2ncnc3ccsc23)c1OCC1(C)CNC1 [Example 24, 3-Methyl-4-((3-methylazetidin-3-yl)methoxy)-5-(thieno[3,2-d]pyrimidin-4-yl)benzonitrile] | 10000 to 30000 |  |
| Cc1cc(Cl)cc(-c2ccnc3cc([C@H](C)n4c(=O)ccn(C)c4=O)sc23)c1O[C@H]1CCCNC1 [Example 287, 3-[(1S)-1-[7-[5-chloro-3-methyl-2-[[(3S)-3-piperidyl]oxy]phenyl]thieno[3,2-b]pyridin-2-yl]ethyl]-1-methyl-pyrimidine-2,4-dione; 2,2,2-trifluoroacetic acid] | < 1000 |  |
| Cc1cc(Cl)cc(-c2ncnc3cc(CN4C(=O)CC(C)C4=O)sc23)c1O[C@@H]1CNC[C@@H]1F (stereo partly drawn) [Example 378, 1-[[4-[5-chloro-2-[(3R,4S)-4-fluoropyrrolidin-3-yl]oxy-3-methyl-phenyl]thieno[3,2-d]pyrimidin-6-yl]methyl]-3-methyl-pyrrolidine-2,5-dione; 2,2,2-trifluoroacetic acid] | < 1000 |  |
| CCC(O)c1cc2ncnc(-c3cc(Cl)cc(C)c3OCC3CNC3)c2s1 (centres unmarked) [Example 13, 1-(4-(2-(Azetidin-3-ylmethoxy)-5-chloro-3-methylphenyl)thieno[3,2-d]pyrimidin-6-yl)propan-1-ol] | 1000 to 10000 |  |
| Cc1cc(Cl)cc(-c2ccnc3ccsc23)c1OC1CCCNCC1 (centres unmarked) [Example 266, 7-(2-(Azepan-4-yloxy)-5-chloro-3-methylphenyl)thieno[3,2-b]pyridine] | 1000 to 10000 |  |
| Cc1cc(Cl)cc(-c2ccnc3cc(CO)sc23)c1O[C@@H]1CNC[C@@H]1C [Example 56, (7-(5-Chloro-3-methyl-2-(((3S,4S)-4-methylpyrrolidin-3-yl)oxy)phenyl)thieno[3,2-b]pyridin-2-yl)methanol] | 1000 to 10000 |  |
| Cc1cc(Cl)cc(-c2ccnc3cc(CO)sc23)c1O[C@@H]1CNC[C@H]1O [Example 80, (3R,4R)-4-(4-Chloro-2-(2-(hydroxymethyl)thieno[3,2-b]pyridin-7-yl)-6-methylphenoxy)pyrrolidin-3-ol] | 1000 to 10000 |  |
| Cc1cc(Cl)cc(-c2ncnc3cc(CN4C(=O)CSC4=O)sc23)c1O[C@@H]1CNC[C@@H]1F [Example 129, 3-((4-(5-Chloro-2-(((3R,4S)-4-fluoropyrrolidin-3-yl)oxy)-3-methylphenyl)thieno[3,2-d]pyrimidin-6-yl)methyl)thiazolidine-2,4-dione] | < 1000 |  |
| Cc1cc(Cl)cc(-c2ccnc3cc(CN4C(=O)C5C(C4=O)C5(C)C)sc23)c1O[C@@H]1CCNC[C@@H]1C (stereo partly drawn) [Example 366, 3-[[7-[5-chloro-3-methyl-2-[[(3S,4R)-3-methyl-4-piperidyl]oxy]phenyl]thieno[3,2-b]pyridin-2-yl]methyl]-6,6-dimethyl-3-azabicyclo[3.1.0]hexane-2,4-dione dihydrochloride] | < 1000 |  |
| Cc1cc(Cl)cc(-c2ccnc3cc(CN4C(=O)CCC4=O)sc23)c1O[C@@H]1CNC[C@@H]1C(F)F [Example 111, 1-((7-(5-Chloro-2-(((3S,4S)-4-(difluoromethyl)pyrrolidin-3-yl)oxy)-3-methylphenyl)thieno[3,2-b]pyridin-2-yl)methyl)pyrrolidine-2,5-dione] | < 1000 |  |
| Cc1cc(Cl)cc(-c2ccnc3cc([C@H](C)N4C(=O)CCC4=O)sc23)c1O[C@H]1CCCNC1 [Example 241, 1-((S)-1-(7-(5-Chloro-3-methyl-2-(((S)-piperidin-3-yl)oxy)phenyl)thieno[3,2-b]pyridin-2-yl)ethyl)pyrrolidine-2,5-dione] | < 1000 |  |
| Cc1cc(Cl)cc(-c2ncnc3cc(CN4C(=O)c5ccccc5C4=O)sc23)c1OC1CCNCC1 [Example 202, 2-((4-(5-Chloro-3-methyl-2-(piperidin-4-yloxy)phenyl)thieno[3,2-d]pyrimidin-6-yl)methyl)isoindoline-1,3-dione] | < 1000 |  |
| Cc1cc(Cl)cc(-c2ncnc3cc(Cn4c(=O)c(F)cn(CC(F)(F)F)c4=O)sc23)c1O[C@H]1CCCNC1 [Example 556, 3-[[4-[5-chloro-3-methyl-2-[[(3S)-3-piperidyl]oxy]phenyl]thieno[3,2-d]pyrimidin-6-yl]methyl]-5-fluoro-1-(2,2,2-trifluoroethyl)pyrimidine-2,4-dione] |  | < 1000 |
| Cc1cc(Cl)cc(-c2ccnc3cc(CN4C(=O)CCC4=O)sc23)c1O[C@H]1CCCNC1 [Example 211, (S)-1-((7-(5-Chloro-3-methyl-2-(piperidin-3-yloxy)phenyl)thieno[3,2-b]pyridin-2-yl)methyl)pyrrolidine-2,5-dione] | < 1000 |  |
| Cc1cc(Cl)cc(-c2ccnc3cc(CN4C(=O)CCC4=O)sc23)c1OC1CCNCC1CO (centres unmarked) [Example 234, 1-((7-(5-Chloro-2-((3-(hydroxymethyl)piperidin-4-yl)oxy)-3-methylphenyl)thieno[3,2-b]pyridin-2-yl)methyl)pyrrolidine-2,5-dione] | < 1000 |  |
| Cc1cc(Cl)cc(-c2ccnc3cc(CN4C(=O)C5CC5C4=O)sc23)c1O[C@@H]1C[C@H]2CN[C@@H]1C2 (stereo partly drawn) [Example 315, 3-[[7-[2-[[(1S,4R,5R)-3-azabicyclo[2.2.1]heptan-5-yl]oxy]-5-chloro-3-methyl-phenyl]thieno[3,2-b]pyridin-2-yl]methyl]-3-azabicyclo[3.1.0]hexane-2,4-dione] | < 1000 |  |
| Cc1cc(Cl)cc(-c2ncnc3cc(Cn4c(=O)ccn(CC(F)(F)F)c4=O)sc23)c1O[C@H]1CC[C@H](N)C1 [Example 543, 3-[[4-[2-[(1S,3S)-3-aminocyclopentoxy]-5-chloro-3-methyl-phenyl]thieno[3,2-d]pyrimidin-6-yl]methyl]-1-(2,2,2-trifluoroethyl)pyrimidine-2,4-dione; 2,2,2-trifluoroacetic acid] |  | < 1000 |
